Data as given in ChEMBL document CHEMBL4507310, “Data for DCP probe A-1211212” (2021).

Experiments:
[1] = molecular target: Serine/threonine-protein kinase pim-1 (Homo sapiens) (UniProt P11309); settings: Compound concentration 1000.0 nM
[2] = test system: Proto-oncogene tyrosine-protein kinase receptor Ret (Homo sapiens), P07949 [V804L]; settings: Compound concentration 1000.0 nM
[3] = test system: Receptor-type tyrosine-protein kinase FLT3 (Homo sapiens), P36888 [UNDEFINED MUTATION]; settings: Compound concentration 1000.0 nM
[4] = molecular target: GABA-A receptor; alpha-1/beta-2/gamma-2 (Homo sapiens) (UniProt P14867+P47870+P18507); test: GABAA1 (h) (alpha1,beta2,gamma2) Eurofins-Cerep binding assay; format: protein-complex assay; design: ligand concentration 15 nM; settings: filed as agonist, Compound concentration 10.0 uM
[5] = molecular target: Aurora kinase A (Homo sapiens) (UniProt O14965); settings: Compound concentration 1000.0 nM
[6] = test system: ALK tyrosine kinase receptor (Homo sapiens), Q9UM73 [L1196M]; settings: Compound concentration 1000.0 nM
[7] = molecular target: Adenosine receptor A1 (Homo sapiens) (UniProt P30542); test: A1 (h) Eurofins-Cerep binding assay; design: ligand concentration 1 nM; settings: filed as antagonist, Compound concentration 10.0 uM
Adenosine receptor A1 (Homo sapiens), sequence (P30542 whole entry): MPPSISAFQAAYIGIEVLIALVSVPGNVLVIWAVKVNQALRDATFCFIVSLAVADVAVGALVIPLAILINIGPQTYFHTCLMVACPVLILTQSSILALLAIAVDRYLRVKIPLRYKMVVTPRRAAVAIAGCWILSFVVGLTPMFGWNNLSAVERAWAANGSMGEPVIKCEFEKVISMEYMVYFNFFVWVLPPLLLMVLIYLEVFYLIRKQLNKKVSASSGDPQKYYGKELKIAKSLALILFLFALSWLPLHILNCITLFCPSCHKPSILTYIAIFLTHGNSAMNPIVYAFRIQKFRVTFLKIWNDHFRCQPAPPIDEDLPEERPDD

[8] = molecular target: RAC-beta serine/threonine-protein kinase (Homo sapiens) (UniProt P31751); settings: Compound concentration 1000.0 nM
[9] = test system: Mast/stem cell growth factor receptor Kit (Homo sapiens), P10721 [V559D]; settings: Compound concentration 1000.0 nM
[10] = test system: Epidermal growth factor receptor (Homo sapiens), P00533 [L858R,T790M]; settings: Compound concentration 1000.0 nM
[11] = molecular target: NT-3 growth factor receptor (Homo sapiens) (UniProt Q16288); settings: Compound concentration 1000.0 nM
[12] = molecular target: Serine/threonine-protein kinase PAK 4 (Homo sapiens) (UniProt O96013); settings: Compound concentration 1000.0 nM
[13] = molecular target: 1-phosphatidylinositol 3-phosphate 5-kinase (Homo sapiens) (UniProt Q9Y2I7); settings: Compound concentration 1000.0 nM
1-phosphatidylinositol 3-phosphate 5-kinase (Homo sapiens), sequence (Q9Y2I7 whole entry): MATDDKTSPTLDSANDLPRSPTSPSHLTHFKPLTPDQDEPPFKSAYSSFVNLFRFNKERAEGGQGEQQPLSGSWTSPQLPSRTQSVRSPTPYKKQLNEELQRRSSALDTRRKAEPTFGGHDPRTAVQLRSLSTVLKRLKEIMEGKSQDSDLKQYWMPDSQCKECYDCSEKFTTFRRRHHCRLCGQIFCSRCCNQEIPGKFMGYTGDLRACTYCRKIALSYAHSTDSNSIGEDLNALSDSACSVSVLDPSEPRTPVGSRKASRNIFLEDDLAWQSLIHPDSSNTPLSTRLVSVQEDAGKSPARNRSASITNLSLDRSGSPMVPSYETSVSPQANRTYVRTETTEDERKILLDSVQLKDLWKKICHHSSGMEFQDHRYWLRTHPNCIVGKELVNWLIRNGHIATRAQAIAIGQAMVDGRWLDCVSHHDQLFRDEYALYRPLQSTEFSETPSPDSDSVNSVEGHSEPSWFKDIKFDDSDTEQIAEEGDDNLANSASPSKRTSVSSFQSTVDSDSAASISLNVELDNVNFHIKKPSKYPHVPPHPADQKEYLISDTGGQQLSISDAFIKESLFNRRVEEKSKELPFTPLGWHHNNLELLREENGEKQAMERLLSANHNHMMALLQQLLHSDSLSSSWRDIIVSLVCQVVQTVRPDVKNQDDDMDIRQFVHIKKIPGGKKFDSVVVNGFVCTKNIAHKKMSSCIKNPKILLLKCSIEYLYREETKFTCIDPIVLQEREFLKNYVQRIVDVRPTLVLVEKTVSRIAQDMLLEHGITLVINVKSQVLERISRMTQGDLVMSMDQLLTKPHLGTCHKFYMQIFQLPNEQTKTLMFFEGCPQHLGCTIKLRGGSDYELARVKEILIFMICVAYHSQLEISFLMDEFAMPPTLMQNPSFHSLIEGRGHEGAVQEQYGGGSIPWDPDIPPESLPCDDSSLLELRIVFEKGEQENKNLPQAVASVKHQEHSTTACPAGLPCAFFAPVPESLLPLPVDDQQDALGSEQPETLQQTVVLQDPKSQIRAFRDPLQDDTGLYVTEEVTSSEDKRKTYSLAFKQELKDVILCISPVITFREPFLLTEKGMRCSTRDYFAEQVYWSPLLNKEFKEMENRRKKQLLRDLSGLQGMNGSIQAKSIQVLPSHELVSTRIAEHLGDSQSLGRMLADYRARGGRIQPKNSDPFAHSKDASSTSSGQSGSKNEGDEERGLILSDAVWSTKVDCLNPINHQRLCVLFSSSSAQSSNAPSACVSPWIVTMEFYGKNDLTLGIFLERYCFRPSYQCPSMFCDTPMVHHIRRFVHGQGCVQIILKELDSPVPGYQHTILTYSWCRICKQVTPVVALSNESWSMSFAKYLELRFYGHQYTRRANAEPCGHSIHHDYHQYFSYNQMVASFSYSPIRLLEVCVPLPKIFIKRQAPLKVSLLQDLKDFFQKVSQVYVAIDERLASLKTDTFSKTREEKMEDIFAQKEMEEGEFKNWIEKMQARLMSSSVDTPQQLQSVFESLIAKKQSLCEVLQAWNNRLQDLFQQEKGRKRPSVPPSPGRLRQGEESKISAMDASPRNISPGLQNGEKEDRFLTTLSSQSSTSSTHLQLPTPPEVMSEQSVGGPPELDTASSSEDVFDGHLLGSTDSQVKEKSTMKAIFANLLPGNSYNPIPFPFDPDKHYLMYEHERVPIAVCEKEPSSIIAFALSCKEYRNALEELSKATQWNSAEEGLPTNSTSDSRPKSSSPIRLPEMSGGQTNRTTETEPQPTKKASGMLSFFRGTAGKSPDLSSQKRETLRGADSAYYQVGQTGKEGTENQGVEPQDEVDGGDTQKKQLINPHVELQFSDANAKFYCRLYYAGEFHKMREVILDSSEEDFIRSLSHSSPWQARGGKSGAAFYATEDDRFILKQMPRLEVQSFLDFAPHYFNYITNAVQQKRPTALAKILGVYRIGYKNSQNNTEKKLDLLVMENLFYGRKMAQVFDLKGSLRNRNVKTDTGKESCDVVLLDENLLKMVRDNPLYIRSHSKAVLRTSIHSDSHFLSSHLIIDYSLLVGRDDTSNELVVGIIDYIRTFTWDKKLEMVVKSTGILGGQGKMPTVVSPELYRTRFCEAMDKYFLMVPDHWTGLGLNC

[14] = molecular target: Activin receptor type-2B (Homo sapiens) (UniProt Q13705); settings: Compound concentration 1000.0 nM
[15] = molecular target: Fibroblast growth factor receptor 4 (Homo sapiens) (UniProt P22455); settings: Compound concentration 1000.0 nM
[16] = molecular target: Ephrin type-B receptor 4 (Homo sapiens) (UniProt P54760); settings: Compound concentration 1000.0 nM
[17] = molecular target: Casein kinase II subunit alpha (Homo sapiens) (UniProt P68400); settings: Compound concentration 1000.0 nM
[18] = molecular target: T1, Muscarinic acetylcholine receptor M4 (Homo sapiens) (UniProt P08173); settings: Compound concentration 10.0 uM
T1 sequence (whole entry): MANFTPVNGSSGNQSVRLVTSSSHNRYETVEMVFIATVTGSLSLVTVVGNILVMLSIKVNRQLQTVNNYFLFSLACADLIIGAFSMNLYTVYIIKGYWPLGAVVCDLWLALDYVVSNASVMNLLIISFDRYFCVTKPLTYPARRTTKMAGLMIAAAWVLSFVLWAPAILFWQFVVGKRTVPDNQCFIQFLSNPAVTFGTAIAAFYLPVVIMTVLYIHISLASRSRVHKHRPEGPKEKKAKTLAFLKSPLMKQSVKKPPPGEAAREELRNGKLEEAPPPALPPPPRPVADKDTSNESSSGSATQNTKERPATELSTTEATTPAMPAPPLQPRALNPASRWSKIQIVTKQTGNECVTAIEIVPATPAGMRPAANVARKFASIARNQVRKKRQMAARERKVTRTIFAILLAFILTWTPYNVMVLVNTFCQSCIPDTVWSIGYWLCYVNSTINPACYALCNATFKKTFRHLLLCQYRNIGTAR

[19] = molecular target: Bone morphogenetic protein receptor type-1B (Homo sapiens) (UniProt O00238); settings: Compound concentration 1000.0 nM
Bone morphogenetic protein receptor type-1B (Homo sapiens), sequence (O00238 whole entry): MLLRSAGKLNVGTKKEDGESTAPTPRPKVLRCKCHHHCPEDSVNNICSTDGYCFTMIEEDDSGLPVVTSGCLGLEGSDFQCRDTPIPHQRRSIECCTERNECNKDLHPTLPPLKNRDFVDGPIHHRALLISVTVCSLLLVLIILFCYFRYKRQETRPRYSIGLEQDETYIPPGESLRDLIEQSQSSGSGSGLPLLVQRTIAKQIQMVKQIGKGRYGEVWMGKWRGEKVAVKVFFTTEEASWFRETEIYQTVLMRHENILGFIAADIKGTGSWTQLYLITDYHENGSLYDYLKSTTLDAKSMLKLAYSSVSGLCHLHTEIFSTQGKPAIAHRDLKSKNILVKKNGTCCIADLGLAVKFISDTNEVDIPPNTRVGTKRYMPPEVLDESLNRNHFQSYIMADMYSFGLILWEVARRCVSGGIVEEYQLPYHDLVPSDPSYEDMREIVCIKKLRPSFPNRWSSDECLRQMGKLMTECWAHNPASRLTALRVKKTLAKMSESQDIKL

[20] = molecular target: Mitogen-activated protein kinase kinase kinase 4 (Homo sapiens) (UniProt Q9Y6R4); settings: Compound concentration 1000.0 nM
[21] = molecular target: Serine/threonine-protein kinase 24 (Homo sapiens) (UniProt Q9Y6E0); settings: Compound concentration 1000.0 nM
Serine/threonine-protein kinase 24 (Homo sapiens), sequence (Q9Y6E0 whole entry, looked up): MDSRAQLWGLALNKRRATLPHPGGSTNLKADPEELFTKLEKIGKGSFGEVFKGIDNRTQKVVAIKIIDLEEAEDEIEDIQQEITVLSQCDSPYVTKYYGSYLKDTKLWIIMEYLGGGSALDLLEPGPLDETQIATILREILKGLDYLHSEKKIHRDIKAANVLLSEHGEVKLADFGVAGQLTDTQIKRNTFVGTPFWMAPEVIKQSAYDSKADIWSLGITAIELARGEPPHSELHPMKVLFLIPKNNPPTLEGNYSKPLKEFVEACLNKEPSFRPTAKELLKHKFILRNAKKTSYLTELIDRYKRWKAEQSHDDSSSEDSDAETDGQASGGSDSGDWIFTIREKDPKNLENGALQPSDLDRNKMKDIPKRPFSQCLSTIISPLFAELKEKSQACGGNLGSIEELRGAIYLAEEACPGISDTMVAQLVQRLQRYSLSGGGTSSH

[22] = molecular target: Substance-P receptor (Homo sapiens) (UniProt P25103); test: NK1 (h) Eurofins-Cerep binding assay; design: ligand concentration 0.05 nM; settings: filed as agonist, Compound concentration 10.0 uM
[23] = test system: Epidermal growth factor receptor (Homo sapiens), P00533 [T790M]; settings: Compound concentration 1000.0 nM
[24] = test system: eIF-2-alpha kinase GCN2 (Homo sapiens), Q9P2K8 [S808G]; settings: Compound concentration 1000.0 nM
eIF-2-alpha kinase GCN2 (Homo sapiens), Q9P2K8 [S808G], sequence (Q9P2K8 whole entry S808G): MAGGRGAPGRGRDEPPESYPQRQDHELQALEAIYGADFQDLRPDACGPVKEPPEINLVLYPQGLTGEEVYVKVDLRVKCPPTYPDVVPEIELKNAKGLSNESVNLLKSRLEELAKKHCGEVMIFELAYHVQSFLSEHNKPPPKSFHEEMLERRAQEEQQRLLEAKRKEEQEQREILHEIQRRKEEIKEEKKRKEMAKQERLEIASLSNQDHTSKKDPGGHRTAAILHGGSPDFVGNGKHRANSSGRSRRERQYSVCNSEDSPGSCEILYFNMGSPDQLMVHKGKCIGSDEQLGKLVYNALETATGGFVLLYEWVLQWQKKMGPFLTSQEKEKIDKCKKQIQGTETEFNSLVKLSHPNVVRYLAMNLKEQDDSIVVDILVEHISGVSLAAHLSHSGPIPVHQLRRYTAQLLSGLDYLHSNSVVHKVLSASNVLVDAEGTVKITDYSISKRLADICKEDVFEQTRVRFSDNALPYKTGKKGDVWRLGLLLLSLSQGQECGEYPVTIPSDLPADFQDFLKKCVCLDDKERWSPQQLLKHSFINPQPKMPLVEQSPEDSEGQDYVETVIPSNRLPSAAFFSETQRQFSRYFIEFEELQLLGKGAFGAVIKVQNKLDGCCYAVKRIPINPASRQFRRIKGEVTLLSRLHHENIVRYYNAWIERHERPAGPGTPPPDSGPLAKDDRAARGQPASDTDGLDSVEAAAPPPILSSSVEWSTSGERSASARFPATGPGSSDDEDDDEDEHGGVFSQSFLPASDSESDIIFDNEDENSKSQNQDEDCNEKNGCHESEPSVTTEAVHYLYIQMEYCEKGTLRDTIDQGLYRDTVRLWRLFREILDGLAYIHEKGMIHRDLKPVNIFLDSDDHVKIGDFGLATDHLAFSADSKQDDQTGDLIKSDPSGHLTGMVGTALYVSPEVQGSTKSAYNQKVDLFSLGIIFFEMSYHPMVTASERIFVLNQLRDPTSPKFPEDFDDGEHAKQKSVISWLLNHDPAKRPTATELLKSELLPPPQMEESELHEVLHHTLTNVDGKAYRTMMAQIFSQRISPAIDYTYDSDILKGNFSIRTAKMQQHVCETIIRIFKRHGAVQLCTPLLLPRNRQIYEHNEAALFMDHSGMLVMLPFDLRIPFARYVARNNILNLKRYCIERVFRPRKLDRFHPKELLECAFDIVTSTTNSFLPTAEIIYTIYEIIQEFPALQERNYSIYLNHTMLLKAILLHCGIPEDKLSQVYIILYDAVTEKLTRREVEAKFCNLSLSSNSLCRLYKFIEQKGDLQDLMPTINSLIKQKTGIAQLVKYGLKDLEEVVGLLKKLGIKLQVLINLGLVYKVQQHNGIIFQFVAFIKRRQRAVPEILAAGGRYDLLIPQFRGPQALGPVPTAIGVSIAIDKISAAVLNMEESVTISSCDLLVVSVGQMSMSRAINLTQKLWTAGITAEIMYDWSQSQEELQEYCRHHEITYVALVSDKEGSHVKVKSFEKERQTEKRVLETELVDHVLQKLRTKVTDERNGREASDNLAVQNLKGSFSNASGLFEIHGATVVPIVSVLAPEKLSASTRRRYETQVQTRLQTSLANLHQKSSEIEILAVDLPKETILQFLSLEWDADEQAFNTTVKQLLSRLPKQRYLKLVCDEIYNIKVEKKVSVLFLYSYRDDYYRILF

[25] = molecular target: L-type Ca2+ channel (dihydropyridine site) (Rattus norvegicus, UniProt P22002+P27732+Q02485); test: Ca2+ channel (L, dihydropyridine site) Eurofins-Cerep binding assay; format: protein assay; design: incubation time 90 min, incubation temperature RT, ligand concentration 0.1 nM; settings: rat cerebral cortex, probe [3H]nitrendipine (0.1 nM), compound concentration 10 uM, read-out: % Inhibition of Control Specific Binding (Mean n=2)
[26] = molecular target: Mitogen-activated protein kinase 9 (Homo sapiens) (UniProt P45984); settings: Compound concentration 1000.0 nM
[27] = molecular target: Serine/threonine-protein kinase LATS2 (Homo sapiens) (UniProt Q9NRM7); settings: Compound concentration 1000.0 nM
[28] = molecular target: Dual specificity tyrosine-phosphorylation-regulated kinase 2 (Homo sapiens) (UniProt Q92630); settings: Compound concentration 1000.0 nM
[29] = molecular target: Cyclin-dependent kinase-like 1 (Homo sapiens) (UniProt Q00532); settings: Compound concentration 1000.0 nM
[30] = test system: Epidermal growth factor receptor (Homo sapiens), P00533 [L861Q]; settings: Compound concentration 1000.0 nM
[31] = molecular target: Beta-2 adrenergic receptor (Homo sapiens) (UniProt P07550); test: Beta2 (h) Eurofins-Cerep binding assay; design: ligand concentration 0.3 nM; settings: filed as antagonist, Compound concentration 10.0 uM
[32] = molecular target: Histamine H3 receptor (Homo sapiens) (UniProt Q9Y5N1); settings: Compound concentration 10.0 uM
[33] = molecular target: Epidermal growth factor receptor (Homo sapiens) (UniProt P00533); settings: Compound concentration 1000.0 nM
[34] = molecular target: Mitogen-activated protein kinase 12 (Homo sapiens) (UniProt P53778); settings: Compound concentration 1000.0 nM

SMILES	residual activity [1]	residual activity [2]	residual activity [3]	% Inhibition of Control Specific Binding (Mean n=2) [4]	residual activity [5]	residual activity [6]	% Inhibition of Control Specific Binding (Mean n=2) [7]	residual activity [8]	residual activity [9]	residual activity [10]	residual activity [11]	residual activity [12]	residual activity [13]	residual activity [14]	residual activity [15]	residual activity [16]	residual activity [17]	inhibition [18]	residual activity [19]	residual activity [20]	further results
O=C(NS(=O)(=O)c1ccc(NCC2CCOCC2)c([N+](=O)[O-])c1)c1ccc(N2CCN(Cc3ccc(C(F)(F)F)cc3-c3ccc(Cl)cc3)CC2)cc1Oc1cnc2[nH]ccc2c1 [A-1210227]	92%	100%	88%	-0.7%	96%	100%	13.6%	100%	100%	75%	100%	93%	100%	94%	96%	100%	83%	-5.79%	89%	94%	residual activity [21]: 100%; % Inhibition of Control Specific Binding (Mean n=2) [22]: -284%; residual activity [23]: 98%; residual activity [24]: 85%; inhibition at 90 min, 10 µM [25]: 7.3%; residual activity [26]: 85%; residual activity [27]: 100%; residual activity [28]: 100%; residual activity [29]: 100%; residual activity [30]: 93%; % Inhibition of Control Specific Binding (Mean n=2) [31]: 10.5%; inhibition [32]: -1.15%; residual activity [33]: 84%; residual activity [34]: 50%
CO[C@H]1CC[C@H](CNc2ccc(S(=O)(=O)NC(=O)c3ccc(N4CCN(CC5=C(c6ccc(Cl)cc6)CC(C)(C)CC5)CC4)cc3Oc3cnc4[nH]ccc4c3)cc2[N+](=O)[O-])CC1 [A-1211212]	72%	88%	100%	-12.2%	100%	100%	9.1%	80%	99%	98%	100%	78%	89%	95%	87%	100%	89%	-0.31%	92%	90%	residual activity [21]: 75%; % Inhibition of Control Specific Binding (Mean n=2) [22]: -60.6%; residual activity [23]: 98%; residual activity [24]: 96%; inhibition at 90 min, 10 µM [25]: 63.2%; residual activity [26]: 82%; residual activity [27]: 100%; residual activity [28]: 100%; residual activity [29]: 94%; residual activity [30]: 70%; % Inhibition of Control Specific Binding (Mean n=2) [31]: -1%; inhibition [32]: 4.97%; residual activity [33]: 62%; residual activity [34]: 47%
